Measured values from patent US20190100761A1, “COMPOSITIONS AND METHODS FOR ENHANCED GENE EXPRESSION AND VIRAL REPLICATION” (priority 2016, published 2019).

Experiments:
HIV-1 NL4-3 = type: cell-based; conditions: 50 μM DAA, CEM-SS cells, Western at 72 hpi
[1] = tested on: m^6A levels in total poly(A)+ RNA; type: cell-based, human; conditions: 50 μM DAA, CEM-SS cells, dot blot
RSV = conditions: literature report; cited from earlier work
IAV = conditions: literature report; cited from earlier work
HIV-1 = conditions: literature report; cited from earlier work
[2] = tested on: m^6A addition to mRNA substrates; conditions: by blocking the hydrolysis of S-adenosylhomocysteine; literature; cited from earlier work

Nc1nccc2c1ncn2[C@@H]1O[C@H](CO)[C@@H](O)[C@H]1O [DAA, 3-deazaadenosine]
replication of HIV-1 (HIV-1 NL4-3): effectively inhibited | m^6A levels in total poly(A)+ RNA [1]: significant decline | cell growth or viability (CEM-SS cells; 50 μM DAA, four day treatment period, CEM-SS cells): did not reduce cell growth or viability | total level of cellular protein (BCA assay) in HIV-1 infected cultures (CEM-SS cells; presence or absence of DAA, CEM-SS cell pellets): similar | replication of RSV (RSV): inhibit the replication | replication of IAV (IAV): inhibit the replication | replication of HIV-1 (HIV-1): inhibit the replication | m^6A addition to mRNA substrates [2]: block m^6A addition
